The test relates to P. falciparum 3D7 growth, pLDH absorbance. As to the kind of experiment: P. falciparum 3D7 growth inhibition, dose response, strain 3D7 (AID 2305).

For `COC(=O)[C@@H](NC(=O)[C@@H](Nc1ccc(C#N)c2ccccc12)C(C)(C)C)c1ccc(O)cc1`, the IC50 came out at 780 nM.
Turning to `Cc1cc(C(=O)OCC(N)=O)c(C)n1-c1ccc(F)cc1`, the IC50 came to 330 nM.
Then `NS(=O)(=O)c1cccc(Nc2nc(N[C@@H]3CCNC3)nc3cc[nH]c(=O)c23)c1`, with 940 nM; and `COc1ccc2nccc(N3CCC(NCCNS(=O)(=O)c4ccc5c(c4)NC(=O)CS5)C3)c2n1` (centres undefined), with 900 nM.
For the compound `COc1cc(-c2nc(-c3ccccc3)c(-c3ccc([N+](=O)[O-])cc3)[nH]2)cc(OC)c1O`, the IC50 amounted to 830 nM.
Consider `CC(=O)c1cccc2cc(C(=O)NC3CCC(CCN4CCc5ccc(C#N)cc5C4)CC3)[nH]c12` (centres undefined), for which the IC50 amounted to 790 nM.
In turn, `O[C@H](c1cc(C(F)(F)F)nc2c(C(F)(F)F)cccc12)[C@@H]1CCCCN1` gave an IC50 of 70 nM.
For `COc1cccc2cc(C(=O)N[C@@H](CC(C)C)C(=O)NC3CC[C@@H](C)N(C(=O)Nc4ccncc4)CC3=O)oc12` (some centres undefined), the IC50 was 290 nM.
In the case of `O=C(/C=C/c1ccc(Cl)c(Cl)c1)NC1CCN(CCCNC(=O)c2cccc(Cl)c2)CC1`, the IC50 stood at 660 nM.
Then `Oc1ccccc1CNCC12CC3CC(CC(C3)C1)C2`, with 280 nM.
Turning to `CC(O)C1CCCCN1C(=O)c1cccc(-c2cccc(-c3nc4ccc(C(F)(F)F)cc4[nH]3)c2)c1` (centres undefined), the IC50 stood at 280 nM.
As to `Oc1cc2c(cc1CN1CCN(Cc3ccccc3)CC1)CCC2`, the IC50 was 720 nM.
In turn, `CCN1CCN(c2cc(C)c3cc(NC(=O)c4cc(OC)cc(OC)c4)ccc3n2)CC1` came in with an IC50 of 160 nM.
Take `CN1CCN(c2ccc(Cl)cc2NC(=O)C2COc3ccccc3O2)CC1` (centres undefined): the IC50 was determined as 810 nM.
The compound `O=C(Nc1ccc(-c2ccccc2)c(OCCN2CCNCC2)c1)c1ccc(-c2ccc(Cl)cc2)cc1` displayed an IC50 of 780 nM.
To `COc1ccc2nc(C)cc(NN=Cc3cc(OC)c(OC)cc3OC)c2c1` belongs 740 nM; to `O=C(/C=C/c1ccc(Cl)c(Cl)c1)NCCCCCN1CCC(NC(=O)NC2CCCCC2)CC1`, 560 nM.
For `Cc1cc(=O)c(-c2ccc(Oc3ccc(C(F)(F)F)cc3)cc2)c(C)n1O`, the IC50 stood at 600 nM.
As to `O=C(Nc1ccccc1)N(Cc1cccc(-c2ccc(CNCCc3ccccc3)cc2)c1)C1CCN(Cc2ccccc2)CC1`, the IC50 came out at 350 nM.
To `CN(C)CC(=O)Nc1cccc(Nc2nccc(NCC(O)c3ccccc3)n2)c1` (centres undefined) belongs 980 nM.
The compound `O=C(Nc1ccncc1)c1cc(C(=O)Nc2ccncc2)cc([N+](=O)[O-])c1` gave an IC50 of 610 nM.
Take `Nc1ccc2[nH]cc(C3CCN(CCC4CCN(C(=O)/C=C/c5ccc(Cl)c(Cl)c5)CC4)CC3)c2n1`: the IC50 was 740 nM.
To `NC(N)=NN=CC(=O)Nc1ccc(Cl)c(Cl)c1` belongs 740 nM; to `Cc1cccc2c(N=NC(=S)N(C)C)c(O)[nH]c12`, 750 nM.
Regarding `O=C(NCC(NCCCNc1cc(=O)c2ccccc2[nH]1)c1cc(Br)cc(Br)c1)C1=CCCC1` (centres undefined), the IC50 is 900 nM.
Turning to `CN(C)c1ccc(-c2csc(C(=O)NC3CCCCN(Cc4ccc(C(C)(C)C)cc4)C3)c2)cc1` (centres undefined), the IC50 worked out at 1110 nM.
The compound `COc1ccc(N2CCN(CCCCNC(=O)c3ccc(NC(=O)c4cccc(Cl)c4)cc3)CC2)c(OC)c1` came in with an IC50 of 910 nM.
Then `Cc1ccc(NC(=O)Nc2ccc(I)c(OCCN(C)C)c2)cc1Cl`, with 560 nM; and `Cc1ccc(C(C)C)c(Oc2cnc(NC(CO)c3ccccc3)nc2N)c1` (centres undefined), with 960 nM; and `CC(=O)CCc1ccc(OCCN(Cc2ccccc2C(F)(F)F)c2ccc(C#N)c(C(F)(F)F)c2)cc1`, with 270 nM.
In turn, `Cc1ccc(OCC2CCN(c3ncc(C(=O)NCCCN4CCCC4=O)cc3Cl)CC2)cc1` returned an IC50 of 1260 nM.
`COc1cc2nc(N3CCC(CNC(=O)c4cccc5cc[nH]c45)CC3)nc(N)c2cc1OC` yielded an IC50 of 1580 nM.
As for `Cc1cc2nc(-c3ccc(/C=C/C(=O)NC4CCCCC4)cc3)[nH]c2cc1C`, the IC50 is 1010 nM.
Then `O=C(Nc1ccc(S(=O)(=O)NCCCN2CCOCC2)cc1)c1cc(-c2ccccc2)n[nH]1`, with 770 nM; and `Cc1ccc(Cc2cnc(NCCSCc3ccc(CN(C)C)s3)[nH]c2=O)cn1`, with 860 nM.
The compound `Cc1cc(NN=Cc2ccccn2)c2cc(F)ccc2n1` gave an IC50 of 760 nM.
`CS(=O)(=O)Nc1cccc(-c2cnc3[nH]cc(-c4ccc(CCC(=O)O)cc4)c3c2)c1` returned an IC50 of 1060 nM.
To `CN1CCN(CCCN(Cc2cccc(-c3ccc(CNC4CCCC4)cc3)c2)C(=O)/C=C/c2ccccc2)CC1` belongs 750 nM; to `O=C(Nc1cccc(-c2cccc(-c3nc4ccc(C(F)(F)F)cc4[nH]3)c2)c1)c1cccnc1`, 400 nM; to `Cc1cccc(C(=O)Nc2ccnc(N(C)CCCN(C)Cc3cccc(C#N)c3)c2)c1`, 1320 nM.
Then `Cc1cc(CNCCCCCCCNCc2ccc(-c3ccccc3)cc2)ccc1O`, with 490 nM; and `CC(=O)Nc1ccc(CN2CCC(N(C)c3cc(NC(=O)c4cccs4)ccn3)CC2)cc1`, with 890 nM; and `CC(C)(C)c1ccc(OCC(=O)NC2CCN(c3ccnc4cc(Cl)ccc34)C2)cc1` (centres undefined), with 130 nM.
Then `O=C(Cc1cccc(Cl)c1)Nc1cccc(-c2c[nH]c3nc(Nc4cccc(O)c4)ncc23)c1`, with 730 nM.

Usually IC50 stands for the concentration that inhibits the measured activity by half.

For the origin of these results see PubChem BioAssay AID2305 (GlaxoSmithKline (GSK), 2010).
